From ChEMBL document CHEMBL4507275, “Data for DCP probe BI-2545” (2021)

Columns and labels:
[1] = biological target: RAC-beta serine/threonine-protein kinase (Homo sapiens) (UniProt P31751); conditions: Compound concentration 1000.0 nM
[2] = biological target: Tyrosine-protein kinase JAK1 (Homo sapiens) (UniProt P23458); conditions: Compound concentration 1000.0 nM
[3] = biological target: Serine/threonine-protein kinase PAK 4 (Homo sapiens) (UniProt O96013); conditions: Compound concentration 1000.0 nM
[4] = biological target: Focal adhesion kinase 1 (Homo sapiens) (UniProt Q05397); conditions: Compound concentration 1000.0 nM
[5] = biological target: Ephrin type-A receptor 1 (Homo sapiens) (UniProt P21709); conditions: Compound concentration 1000.0 nM
[6] = biological target: Serine/threonine-protein kinase Nek11 (Homo sapiens) (UniProt Q8NG66); conditions: Compound concentration 1000.0 nM
[7] = biological target: Serine/threonine-protein kinase 24 (Homo sapiens) (UniProt Q9Y6E0); conditions: Compound concentration 1000.0 nM
[8] = biological target: Hepatocyte growth factor receptor (Homo sapiens) (UniProt P08581); conditions: Compound concentration 1000.0 nM
[9] = biological target: 5-hydroxytryptamine receptor 5A (Homo sapiens) (UniProt P47898); conditions: Compound concentration 10.0 uM
[10] = test system: Epidermal growth factor receptor (Homo sapiens), P00533 [UNDEFINED MUTATION]; conditions: Compound concentration 1000.0 nM
[11] = biological target: Ephrin type-A receptor 4 (Homo sapiens) (UniProt P54764); conditions: Compound concentration 1000.0 nM
[12] = biological target: Serine/threonine-protein kinase TAO3 (Homo sapiens) (UniProt Q9H2K8); conditions: Compound concentration 1000.0 nM
[13] = biological target: Activin receptor type-1 (Homo sapiens) (UniProt Q04771); conditions: Compound concentration 1000.0 nM
[14] = biological target: STE20-like serine/threonine-protein kinase (Homo sapiens) (UniProt Q9H2G2); conditions: Compound concentration 1000.0 nM
[15] = biological target: Casein kinase I isoform delta (Homo sapiens) (UniProt P48730); conditions: Compound concentration 1000.0 nM
[16] = biological target: Macrophage-stimulating protein receptor (Homo sapiens) (UniProt Q04912); conditions: Compound concentration 1000.0 nM
[17] = biological target: Wee1-like protein kinase (Homo sapiens) (UniProt P30291); conditions: Compound concentration 1000.0 nM
[18] = biological target: Serine/threonine-protein kinase MRCK gamma (Homo sapiens) (UniProt Q6DT37); conditions: Compound concentration 1000.0 nM
[19] = biological target: Cyclin-dependent kinase 15 (Homo sapiens) (UniProt Q96Q40); conditions: Compound concentration 1000.0 nM
[20] = biological target: Serine/threonine-protein kinase PAK 5 (Homo sapiens) (UniProt Q9P286); conditions: Compound concentration 1000.0 nM
[21] = biological target: Calcium/calmodulin-dependent protein kinase type IV (Homo sapiens) (UniProt Q16566); conditions: Compound concentration 1000.0 nM
[22] = biological target: Serine/threonine-protein kinase MRCK alpha (Homo sapiens) (UniProt Q5VT25); conditions: Compound concentration 1000.0 nM
[23] = biological target: Serine/threonine-protein kinase 17B (Homo sapiens) (UniProt O94768); conditions: Compound concentration 1000.0 nM
[24] = biological target: Sigma intracellular receptor 2 (Homo sapiens) (UniProt Q5BJF2); conditions: Compound concentration 10.0 uM
[25] = biological target: Cyclin-dependent kinase 4 (Homo sapiens) (UniProt P11802); conditions: Compound concentration 1000.0 nM
[26] = biological target: Calcium/calmodulin-dependent protein kinase type 1D (Homo sapiens) (UniProt Q8IU85); conditions: Compound concentration 1000.0 nM
[27] = biological target: Casein kinase I isoform epsilon (Homo sapiens) (UniProt P49674); conditions: Compound concentration 1000.0 nM
[28] = biological target: Ribosomal protein S6 kinase alpha-2 (Homo sapiens) (UniProt Q15349); conditions: Compound concentration 1000.0 nM
[29] = biological target: Serine/threonine-protein kinase MRCK beta (Homo sapiens) (UniProt Q9Y5S2); conditions: Compound concentration 1000.0 nM
[30] = biological target: Homeodomain-interacting protein kinase 4 (Homo sapiens) (UniProt Q8NE63); conditions: Compound concentration 1000.0 nM
[31] = test system: Epidermal growth factor receptor (Homo sapiens), P00533 [G719S]; conditions: Compound concentration 1000.0 nM
[32] = biological target: Mitogen-activated protein kinase kinase kinase 12 (Homo sapiens) (UniProt Q12852); conditions: Compound concentration 1000.0 nM
[33] = biological target: Serine/threonine-protein kinase TBK1 (Homo sapiens) (UniProt Q9UHD2); conditions: Compound concentration 1000.0 nM
[34] = test system: Phosphatidylinositol 4,5-bisphosphate 3-kinase catalytic subunit alpha isoform (Homo sapiens), P42336 [E545A]; conditions: Compound concentration 1000.0 nM
[35] = biological target: Insulin receptor-related protein (Homo sapiens) (UniProt P14616); conditions: Compound concentration 1000.0 nM
[36] = biological target: Serine/threonine-protein kinase RIO1 (Homo sapiens) (UniProt Q9BRS2); conditions: Compound concentration 1000.0 nM
[37] = biological target: Sigma non-opioid intracellular receptor 1 (Homo sapiens, UniProt Q99720); conditions: Compound concentration 10.0 uM
[38] = test system: Phosphatidylinositol 4,5-bisphosphate 3-kinase catalytic subunit alpha isoform (Homo sapiens), P42336 [H1047Y]; conditions: Compound concentration 1000.0 nM
[39] = biological target: D(1A) dopamine receptor (Homo sapiens) (UniProt P21728); conditions: Compound concentration 10.0 uM
[40] = biological target: Serine/threonine-protein kinase DCLK1 (Homo sapiens) (UniProt O15075); conditions: Compound concentration 1000.0 nM
[41] = biological target: 5-hydroxytryptamine receptor 2A (Homo sapiens, UniProt P28223); conditions: Compound concentration 10.0 uM
[42] = biological target: Non-receptor tyrosine-protein kinase TYK2 (Homo sapiens) (UniProt P29597); conditions: Compound concentration 1000.0 nM
[43] = biological target: 5-hydroxytryptamine receptor 1E (Homo sapiens) (UniProt P28566); conditions: Compound concentration 10.0 uM
[44] = test system: Epidermal growth factor receptor (Homo sapiens), P00533 [UNDEFINED MUTATION]; conditions: Compound concentration 1000.0 nM; remark: listed apart in the source
[45] = test system: Tyrosine-protein kinase ABL1 (Homo sapiens), P00519 [F317I]; conditions: Compound concentration 1000.0 nM

Sequence of Serine/threonine-protein kinase MRCK gamma (Homo sapiens) (Q6DT37 whole entry): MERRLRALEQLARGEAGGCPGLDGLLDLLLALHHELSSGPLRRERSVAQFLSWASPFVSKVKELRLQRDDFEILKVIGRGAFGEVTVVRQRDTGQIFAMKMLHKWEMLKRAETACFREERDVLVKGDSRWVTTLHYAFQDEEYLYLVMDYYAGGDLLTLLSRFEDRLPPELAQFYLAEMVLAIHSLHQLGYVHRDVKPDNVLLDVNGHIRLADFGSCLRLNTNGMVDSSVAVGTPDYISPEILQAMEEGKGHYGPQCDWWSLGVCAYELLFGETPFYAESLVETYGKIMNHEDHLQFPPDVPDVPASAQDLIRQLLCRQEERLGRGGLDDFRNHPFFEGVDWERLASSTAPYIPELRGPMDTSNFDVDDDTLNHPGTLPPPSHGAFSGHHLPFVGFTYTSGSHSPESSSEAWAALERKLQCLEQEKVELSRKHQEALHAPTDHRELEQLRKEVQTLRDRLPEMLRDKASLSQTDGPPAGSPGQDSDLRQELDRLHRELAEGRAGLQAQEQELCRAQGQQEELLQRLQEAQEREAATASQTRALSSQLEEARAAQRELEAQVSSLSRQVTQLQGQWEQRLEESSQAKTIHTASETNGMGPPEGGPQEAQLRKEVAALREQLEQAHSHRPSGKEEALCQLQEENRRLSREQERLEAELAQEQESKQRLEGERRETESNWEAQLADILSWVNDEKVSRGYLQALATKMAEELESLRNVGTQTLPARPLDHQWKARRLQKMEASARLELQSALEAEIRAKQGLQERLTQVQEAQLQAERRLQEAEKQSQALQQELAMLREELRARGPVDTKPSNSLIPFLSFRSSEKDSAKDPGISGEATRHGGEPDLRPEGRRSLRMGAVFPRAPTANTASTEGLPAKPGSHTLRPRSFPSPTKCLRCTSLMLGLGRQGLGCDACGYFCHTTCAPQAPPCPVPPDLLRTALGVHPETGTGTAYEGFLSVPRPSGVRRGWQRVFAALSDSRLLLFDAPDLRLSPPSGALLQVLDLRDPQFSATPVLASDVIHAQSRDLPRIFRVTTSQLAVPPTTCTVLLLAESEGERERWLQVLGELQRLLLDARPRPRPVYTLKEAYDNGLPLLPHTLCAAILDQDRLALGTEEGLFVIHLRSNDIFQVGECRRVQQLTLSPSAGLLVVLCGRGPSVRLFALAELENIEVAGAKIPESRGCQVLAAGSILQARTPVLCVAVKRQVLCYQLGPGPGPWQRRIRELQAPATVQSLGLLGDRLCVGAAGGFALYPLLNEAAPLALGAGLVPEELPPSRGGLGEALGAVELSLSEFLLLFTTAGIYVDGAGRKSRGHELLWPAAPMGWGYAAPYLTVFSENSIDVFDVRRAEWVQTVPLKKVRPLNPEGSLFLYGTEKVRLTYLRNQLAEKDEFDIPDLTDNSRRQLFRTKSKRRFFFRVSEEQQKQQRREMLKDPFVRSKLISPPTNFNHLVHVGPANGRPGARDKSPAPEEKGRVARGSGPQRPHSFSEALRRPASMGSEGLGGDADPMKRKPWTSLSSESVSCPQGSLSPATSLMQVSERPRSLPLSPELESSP
Sequence of Phosphatidylinositol 4,5-bisphosphate 3-kinase catalytic subunit alpha isoform (Homo sapiens), P42336 [E545A] (P42336 whole entry E545A, canonical isoform): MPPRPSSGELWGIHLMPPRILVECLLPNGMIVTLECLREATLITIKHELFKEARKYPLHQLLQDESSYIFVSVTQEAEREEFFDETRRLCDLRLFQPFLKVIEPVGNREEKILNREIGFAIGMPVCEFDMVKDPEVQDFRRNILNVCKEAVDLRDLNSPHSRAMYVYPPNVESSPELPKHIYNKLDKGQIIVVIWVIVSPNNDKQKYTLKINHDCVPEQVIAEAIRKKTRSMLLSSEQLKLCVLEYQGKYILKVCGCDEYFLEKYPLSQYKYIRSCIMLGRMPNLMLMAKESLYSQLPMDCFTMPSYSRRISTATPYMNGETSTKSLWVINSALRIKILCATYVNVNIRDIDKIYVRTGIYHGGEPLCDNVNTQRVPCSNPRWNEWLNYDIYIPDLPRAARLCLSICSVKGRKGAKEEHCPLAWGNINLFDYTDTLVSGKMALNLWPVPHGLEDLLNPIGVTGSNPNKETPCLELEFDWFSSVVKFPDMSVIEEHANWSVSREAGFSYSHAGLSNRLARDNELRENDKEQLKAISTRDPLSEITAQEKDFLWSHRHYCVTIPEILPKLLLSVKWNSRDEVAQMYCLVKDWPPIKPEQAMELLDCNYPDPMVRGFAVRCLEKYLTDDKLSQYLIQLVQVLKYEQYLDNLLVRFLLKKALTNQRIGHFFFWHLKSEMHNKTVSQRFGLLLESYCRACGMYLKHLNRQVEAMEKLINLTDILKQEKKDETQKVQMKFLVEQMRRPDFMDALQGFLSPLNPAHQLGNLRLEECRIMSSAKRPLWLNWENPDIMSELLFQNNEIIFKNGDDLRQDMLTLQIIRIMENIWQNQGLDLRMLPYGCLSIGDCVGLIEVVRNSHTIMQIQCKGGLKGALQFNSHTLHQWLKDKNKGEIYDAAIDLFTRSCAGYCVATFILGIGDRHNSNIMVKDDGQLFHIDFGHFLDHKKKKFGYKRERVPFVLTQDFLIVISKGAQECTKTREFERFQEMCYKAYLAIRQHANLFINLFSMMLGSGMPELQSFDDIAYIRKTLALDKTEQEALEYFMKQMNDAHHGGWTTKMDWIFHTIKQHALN
Sequence of Serine/threonine-protein kinase DCLK1 (Homo sapiens) (O15075 whole entry): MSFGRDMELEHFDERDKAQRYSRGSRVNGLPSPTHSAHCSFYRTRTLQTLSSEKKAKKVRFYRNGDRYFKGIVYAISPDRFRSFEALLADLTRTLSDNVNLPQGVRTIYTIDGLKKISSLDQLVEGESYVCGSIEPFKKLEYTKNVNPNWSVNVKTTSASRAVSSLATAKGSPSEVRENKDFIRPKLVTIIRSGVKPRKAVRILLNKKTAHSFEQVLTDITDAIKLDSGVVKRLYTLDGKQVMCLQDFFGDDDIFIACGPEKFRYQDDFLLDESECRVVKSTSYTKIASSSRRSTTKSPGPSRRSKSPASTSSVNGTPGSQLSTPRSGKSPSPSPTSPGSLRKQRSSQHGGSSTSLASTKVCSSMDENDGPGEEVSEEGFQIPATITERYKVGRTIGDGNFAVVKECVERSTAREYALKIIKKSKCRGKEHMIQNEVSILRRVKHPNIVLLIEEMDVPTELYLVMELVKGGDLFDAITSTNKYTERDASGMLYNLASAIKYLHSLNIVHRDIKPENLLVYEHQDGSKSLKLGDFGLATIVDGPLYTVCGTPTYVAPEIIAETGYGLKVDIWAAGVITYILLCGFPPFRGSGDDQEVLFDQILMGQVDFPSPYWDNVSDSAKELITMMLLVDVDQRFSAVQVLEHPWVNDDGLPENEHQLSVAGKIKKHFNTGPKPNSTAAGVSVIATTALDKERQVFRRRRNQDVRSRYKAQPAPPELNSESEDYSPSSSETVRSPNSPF
Sequence of Cyclin-dependent kinase 4 (Homo sapiens) (P11802 whole entry): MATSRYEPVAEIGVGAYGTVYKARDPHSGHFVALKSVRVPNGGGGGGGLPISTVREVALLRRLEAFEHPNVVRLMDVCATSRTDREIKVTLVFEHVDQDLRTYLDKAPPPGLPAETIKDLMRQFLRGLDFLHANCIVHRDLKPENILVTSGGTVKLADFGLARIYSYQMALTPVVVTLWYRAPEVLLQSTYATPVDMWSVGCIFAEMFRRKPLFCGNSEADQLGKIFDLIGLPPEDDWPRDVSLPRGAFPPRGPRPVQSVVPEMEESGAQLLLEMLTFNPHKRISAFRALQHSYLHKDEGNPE
Sequence of Serine/threonine-protein kinase PAK 5 (Homo sapiens) (Q9P286 whole entry, looked up): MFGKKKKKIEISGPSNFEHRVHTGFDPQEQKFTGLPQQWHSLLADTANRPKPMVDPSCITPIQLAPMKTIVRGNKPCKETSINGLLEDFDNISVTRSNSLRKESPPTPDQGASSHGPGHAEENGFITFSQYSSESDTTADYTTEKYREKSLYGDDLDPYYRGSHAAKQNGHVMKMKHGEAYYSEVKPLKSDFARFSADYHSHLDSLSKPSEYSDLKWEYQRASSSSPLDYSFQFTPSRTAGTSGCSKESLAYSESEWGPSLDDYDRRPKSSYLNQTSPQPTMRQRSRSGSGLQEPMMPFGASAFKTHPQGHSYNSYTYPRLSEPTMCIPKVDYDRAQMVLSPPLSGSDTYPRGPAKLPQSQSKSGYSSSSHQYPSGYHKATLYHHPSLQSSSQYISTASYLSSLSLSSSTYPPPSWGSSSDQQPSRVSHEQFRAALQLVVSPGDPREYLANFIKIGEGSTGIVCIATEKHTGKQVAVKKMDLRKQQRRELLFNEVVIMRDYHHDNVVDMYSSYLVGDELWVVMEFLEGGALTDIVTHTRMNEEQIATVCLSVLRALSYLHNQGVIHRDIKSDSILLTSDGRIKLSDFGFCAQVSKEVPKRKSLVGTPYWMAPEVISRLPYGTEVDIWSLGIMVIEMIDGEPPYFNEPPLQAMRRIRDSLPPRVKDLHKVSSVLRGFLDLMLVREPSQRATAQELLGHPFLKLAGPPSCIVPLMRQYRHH
Sequence of Casein kinase I isoform delta (Homo sapiens) (P48730 whole entry, looked up, canonical isoform): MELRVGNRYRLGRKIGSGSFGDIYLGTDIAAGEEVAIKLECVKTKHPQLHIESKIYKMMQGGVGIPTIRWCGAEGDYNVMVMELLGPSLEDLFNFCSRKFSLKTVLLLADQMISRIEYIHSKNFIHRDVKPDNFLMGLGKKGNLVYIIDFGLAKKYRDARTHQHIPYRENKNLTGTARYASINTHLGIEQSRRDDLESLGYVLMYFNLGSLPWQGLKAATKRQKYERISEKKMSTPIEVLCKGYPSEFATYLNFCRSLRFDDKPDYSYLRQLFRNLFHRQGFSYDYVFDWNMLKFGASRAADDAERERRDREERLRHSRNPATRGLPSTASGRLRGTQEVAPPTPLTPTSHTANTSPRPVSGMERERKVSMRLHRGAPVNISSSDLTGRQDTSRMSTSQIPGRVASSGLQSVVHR
Sequence of Sigma non-opioid intracellular receptor 1 (Q99720 whole entry, canonical isoform): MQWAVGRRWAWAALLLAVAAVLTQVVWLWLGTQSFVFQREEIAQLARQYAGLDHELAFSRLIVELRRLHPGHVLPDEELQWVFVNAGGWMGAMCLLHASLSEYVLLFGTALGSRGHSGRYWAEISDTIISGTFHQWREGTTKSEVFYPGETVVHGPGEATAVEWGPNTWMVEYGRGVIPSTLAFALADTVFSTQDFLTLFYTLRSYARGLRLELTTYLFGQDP

**Q.** For O=C(NC[C@@H]1[C@H]2CN(C(=O)OCc3cc(C(F)(F)F)cc(C(F)(F)F)c3)C[C@@H]12)c1ccc2[nH]nnc2c1 [BI 2545], which residual activity [1] is on record?
**A.** 100%

**Q.** What about the residual activity [2] of the same compound?
**A.** 89%

**Q.** What about the residual activity [3] of the same compound?
**A.** 100%

**Q.** What about the residual activity [4] of the same compound?
**A.** 100%

**Q.** What about the residual activity [5] of the same compound?
**A.** 100%

**Q.** What about the residual activity [6] of the same compound?
**A.** 100%

**Q.** And the residual activity [7]?
**A.** 90%

**Q.** And the residual activity [8]?
**A.** 100%

**Q.** What about the inhibition [9] of the same compound?
**A.** 33.2%

**Q.** What about the residual activity [10] of the same compound?
**A.** 83%

**Q.** What about the residual activity [11] of the same compound?
**A.** 82%

**Q.** What about the residual activity [12] of the same compound?
**A.** 88%

**Q.** And the residual activity [13]?
**A.** 100%

**Q.** What about the residual activity [14] of the same compound?
**A.** 100%

**Q.** What about the residual activity [15] of the same compound?
**A.** 100%

**Q.** And the residual activity [16]?
**A.** 100%

**Q.** And the residual activity [17]?
**A.** 100%

**Q.** And the residual activity [18]?
**A.** 90%

**Q.** What about the residual activity [19] of the same compound?
**A.** 75%

**Q.** What about the residual activity [20] of the same compound?
**A.** 100%

**Q.** What about the residual activity [21] of the same compound?
**A.** 100%

**Q.** And the residual activity [22]?
**A.** 100%

**Q.** And the residual activity [23]?
**A.** 91%

**Q.** What about the inhibition [24] of the same compound?
**A.** 44.9%

**Q.** What about the residual activity [25] of the same compound?
**A.** 100%

**Q.** What about the residual activity [26] of the same compound?
**A.** 100%

**Q.** What about the residual activity [27] of the same compound?
**A.** 100%

**Q.** And the residual activity [28]?
**A.** 84%

**Q.** And the residual activity [29]?
**A.** 100%

**Q.** What about the residual activity [30] of the same compound?
**A.** 100%

**Q.** What about the residual activity [31] of the same compound?
**A.** 100%

**Q.** And the residual activity [32]?
**A.** 100%

**Q.** And the residual activity [33]?
**A.** 100%

**Q.** What about the residual activity [34] of the same compound?
**A.** 96%

**Q.** And the residual activity [35]?
**A.** 83%

**Q.** What about the residual activity [36] of the same compound?
**A.** 69%

**Q.** What about the inhibition [37] of the same compound?
**A.** 51.2%

**Q.** And the residual activity [38]?
**A.** 62%

**Q.** And the inhibition [39]?
**A.** 8.68%

**Q.** And the residual activity [40]?
**A.** 94%

**Q.** What about the inhibition [41] of the same compound?
**A.** 51.4%

**Q.** What about the residual activity [42] of the same compound?
**A.** 100%

**Q.** What about the inhibition [43] of the same compound?
**A.** 33.6%

**Q.** What about the residual activity [44] of the same compound?
**A.** 100%

**Q.** What about the residual activity [45] of the same compound?
**A.** 89%

**Q.** Which results are given for Cc1nccc(COC(=O)N2C[C@@H]3[C@@H](CNC(=O)c4ccc5[nH]nnc5c4)[C@@H]3C2)n1 [BI 3017]?
**A.** residual activity [1]: 98%; residual activity [2]: 92%; residual activity [3]: 100%; residual activity [4]: 100%; residual activity [5]: 100%; residual activity [6]: 88%; residual activity [7]: 90%; residual activity [8]: 94%; inhibition [9]: 13.2%; residual activity [10]: 100%; residual activity [11]: 98%; residual activity [12]: 83%; residual activity [13]: 95%; residual activity [14]: 100%; residual activity [15]: 97%; residual activity [16]: 100%; residual activity [17]: 100%; residual activity [18]: 92%; residual activity [19]: 100%; residual activity [20]: 92%; residual activity [21]: 95%; residual activity [22]: 100%; residual activity [23]: 85%; inhibition [24]: -2.9%; residual activity [25]: 90%; residual activity [26]: 100%; residual activity [27]: 100%; residual activity [28]: 91%; residual activity [29]: 82%; residual activity [30]: 84%; residual activity [31]: 100%; residual activity [32]: 72%; residual activity [33]: 96%; residual activity [34]: 87%; residual activity [35]: 100%; residual activity [36]: 100%; inhibition [37]: 3.21%; residual activity [38]: 82%; inhibition [39]: -9.63%; residual activity [40]: 90%; inhibition [41]: 7.65%; residual activity [42]: 100%; inhibition [43]: 31.8%; residual activity [44]: 100%; residual activity [45]: 100%
